This is an account of results in the supplement of paper PMC11208160.

The data set is described as follows: recombinant UMI read abundance after kanamycin selection (control-corrected) (log10(CPM+1)); higher = more efficient recombination; extreme values may be limits of the assay; sequences stand for … in AGTGCAGAGAAAATCGGCCAGTTTTCTCTGCCTGCAGTCCGCATGCCGTGGGACCCCTTGGGTTCTAACCTGTTGCCTAGATTTATGCAGCGGACTGCCTTTCTCCCAAAGTGATAAACCGG…AGGTTGGTTTCACT; site = the 11-nt donor. The method in brief:
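Sequencing read counts were converted to CPM, averaged over two replicates and scaled by control-derived factors. Results are given as log10(CPM+1). The reads covered the donor–target junction of recombinant UMIs from a pooled Escherichia coli screen of donor and donor-binding-loop pairs for the IS621 bridge recombinase.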
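Note: IS621 bridge recombinase in Escherichia coli cells against a fixed T5 target plasmid.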

As to “GTTAGACCATGGACCGGTTTTCCCGGTAATCCGTATTTGGC (site GTTAGATCTGC)”, the “recombinant UMI read abundance (log10)” value amounted to 0. Then “GTTAGAGCATGGACCGGTTTTCCCGGTAATCCGTATTTGGC (site GTTAGAACTGC)”, with 2.02; and “GTTAGAGCATGGACCGGTTTTCCCGGTAATCCGTATTTGGC (site GTTAGACCTGC)”, with 0. For “GTTAGAGCATGGACCGGTTTTCCCGGTAATCCGTATTTGGC (site GTTAGAGCTGC)” the value was 2.22; for “GTTAGAGCATGGACCGGTTTTCCCGGTAATCCGTATTTGGC (site GTTAGATCTGC)”, 1.51. Then “GTTAGGACATGGACCGGTTTTCCCGGTAATCCGTATTTGGC (site GTTAGAACTGC)”, with 1.16. “GTTAGGACATGGACCGGTTTTCCCGGTAATCCGTATTTGGC (site GTTAGCACTGC)”: the “recombinant UMI read abundance (log10)” value is 0. Then “GTTAGGACATGGACCGGTTTTCCCGGTAATCCGTATTTGGC (site GTTAGGACTGC)”, with 2.84; and “GTTAGGACATGGACCGGTTTTCCCGGTAATCCGTATTTGGC (site GTTAGTACTGC)”, with 0; and “GTTATTCCATGGACCGGTTTTCCCGGTAATCCGTATTTGGT (site GTTATTCCTAC)”, with 0.469. For “GTTATTCCATGGACCGGTTTTCCCGGTAATCCGTATTTGGT (site GTTCTTCCTAC)” the value was 0. For “GTTATTCCATGGACCGGTTTTCCCGGTAATCCGTATTTGGT (site GTTGTTCCTAC)”, the “recombinant UMI read abundance (log10)” value was found to be 0.00973. Then “GTTATTCCATGGACCGGTTTTCCCGGTAATCCGTATTTGGT (site GTTTTTCCTAC)”, with 0; and “GTTCACGCATGGACCGGTTTTCCCGGTAATCCGTATTTGTT (site GTTCACGCTAA)”, with 1; and “GTTCATACATGGACCGGTTTTCCCGGTAATCCGTATTTGTG (site GTTCATACTCA)”, with 0.505.

Regarding “GTTCCGGCATGGACCGGTTTTCCCGGTAATCCGTATTTGCC (site GTTCCGGCTGG)”, the “recombinant UMI read abundance (log10)” value was 0. Then “GTTCGAGCATGGACCGGTTTTCCCGGTAATCCGTATTTGAA (site GTTCGAGCTTA)”, with 0.307; and “GTTCGAGCATGGACCGGTTTTCCCGGTAATCCGTATTTGAA (site GTTCGAGCTTC)”, with 0. For “GTTCGAGCATGGACCGGTTTTCCCGGTAATCCGTATTTGAA (site GTTCGAGCTTG)” the value was 0; for “GTTCGAGCATGGACCGGTTTTCCCGGTAATCCGTATTTGAA (site GTTCGAGCTTT)”, 1.41; for “GTTCGAGCATGGACCGGTTTTCCCGGTAATCCGTATTTGCT (site GTTCGAGCTAG)”, 1.9. For “GTTCGAGCATGGACCGGTTTTCCCGGTAATCCGTATTTGCT (site GTTCGAGCTCG)” the value was 0.664.

As for “GTTCGAGCATGGACCGGTTTTCCCGGTAATCCGTATTTGCT (site GTTCGAGCTGG)”, the “recombinant UMI read abundance (log10)” value is 0.928. For “GTTCGAGCATGGACCGGTTTTCCCGGTAATCCGTATTTGCT (site GTTCGAGCTTG)” the value was 1.03; for “GTTCGAGCATGGACCGGTTTTCCCGGTAATCCGTATTTGGA (site GTTCGAGCTTA)”, 0.635; for “GTTCGAGCATGGACCGGTTTTCCCGGTAATCCGTATTTGGA (site GTTCGAGCTTC)”, 0.499. For “GTTCGAGCATGGACCGGTTTTCCCGGTAATCCGTATTTGGA (site GTTCGAGCTTG)” the value was 0; for “GTTCGAGCATGGACCGGTTTTCCCGGTAATCCGTATTTGGA (site GTTCGAGCTTT)”, 0.942. For “GTTCGATCATGGACCGGTTTTCCCGGTAATCCGTATTTGCC (site GTTCGATCTGG)” the value was 1.92; for “GTTCGTACATGGACCGGTTTTCCCGGTAATCCGTATTTGCA (site GTTCGTACTTG)”, 1.64.

As for “GTTCGTACATGGACCGGTTTTCCCGGTAATCCGTATTTGTT (site GTTCGTACTAA)”, the “recombinant UMI read abundance (log10)” value is 0.0105.

Consider “GTTCGTGCATGGACCGGTTTTCCCGGTAATCCGTATTTGCA (site GTTCGAGCTTG)”, for which the “recombinant UMI read abundance (log10)” value was determined as 0.585. Then “GTTCGTGCATGGACCGGTTTTCCCGGTAATCCGTATTTGCA (site GTTCGCGCTTG)”, with 0.0038; and “GTTCGTGCATGGACCGGTTTTCCCGGTAATCCGTATTTGCA (site GTTCGGGCTTG)”, with 0.36; and “GTTCGTGCATGGACCGGTTTTCCCGGTAATCCGTATTTGCA (site GTTCGTGCTTG)”, with 1.96. For “GTTGAGACATGGACCGGTTTTCCCGGTAATCCGTATTTGAC (site GTTGAGACTGT)” the value was 2.94. For “GTTGCTGCATGGACCGGTTTTCCCGGTAATCCGTATTTGAG (site GTTGCTGCTCT)” the value was 0.388; for “GTTGGACCATGGACCGGTTTTCCCGGTAATCCGTATTTGCC (site GTTGGACCTGG)”, 0; for “GTTGGCCCATGGACCGGTTTTCCCGGTAATCCGTATTTGAG (site GTTGGCCCTCT)”, 0.0112. For the sequence “GTTGGGACATGGACCGGTTTTCCCGGTAATCCGTATTTGGC (site GTTGGGACTGC)”, the “recombinant UMI read abundance (log10)” value is 1.53. On to “GTTGGGGCATGGACCGGTTTTCCCGGTAATCCGTATTTGCG (site GTTGGGGCTCG)”, for which the “recombinant UMI read abundance (log10)” value came out at 2.05. Then “GTTGTACCATGGACCGGTTTTCCCGGTAATCCGTATTTGGT (site GTTGTACCTAC)”, with 0; and “GTTGTACCATGGACCGGTTTTCCCGGTAATCCGTATTTGGT (site GTTGTCCCTAC)”, with 0.0245. Then “GTTGTACCATGGACCGGTTTTCCCGGTAATCCGTATTTGGT (site GTTGTGCCTAC)”, with 0.0127; and “GTTGTACCATGGACCGGTTTTCCCGGTAATCCGTATTTGGT (site GTTGTTCCTAC)”, with 0; and “GTTGTGCCATGGACCGGTTTTCCCGGTAATCCGTATTTGGT (site GTTGTACCTAC)”, with 0.00401. Turning to “GTTGTGCCATGGACCGGTTTTCCCGGTAATCCGTATTTGGT (site GTTGTCCCTAC)”, the “recombinant UMI read abundance (log10)” value came to 0.0044. For the sequence “GTTGTGCCATGGACCGGTTTTCCCGGTAATCCGTATTTGGT (site GTTGTGCCTAC)”, the “recombinant UMI read abundance (log10)” value came out at 0.0934. For “GTTGTGCCATGGACCGGTTTTCCCGGTAATCCGTATTTGGT (site GTTGTTCCTAC)” the value was 0.0079; for “GTTGTGGCATGGACCGGTTTTCCCGGTAATCCGTATTTGAG (site GTTGTGGCTCT)”, 1.71. For “GTTGTTTCATGGACCGGTTTTCCCGGTAATCCGTATTTGGT (site GTTGTTACTAC)” the value was 0.00963. Consider “GTTGTTTCATGGACCGGTTTTCCCGGTAATCCGTATTTGGT (site GTTGTTCCTAC)”, for which the “recombinant UMI read abundance (log10)” value is 0.00733. In the case of “GTTGTTTCATGGACCGGTTTTCCCGGTAATCCGTATTTGGT (site GTTGTTGCTAC)”, the “recombinant UMI read abundance (log10)” value was 0.0146. For the sequence “GTTGTTTCATGGACCGGTTTTCCCGGTAATCCGTATTTGGT (site GTTGTTTCTAC)”, the “recombinant UMI read abundance (log10)” value is 0.83. Then “GTTTAAACATGGACCGGTTTTCCCGGTAATCCGTATTTGGA (site GTTTAAACTTC)”, with 0.655. For “GTTTAGGCATGGACCGGTTTTCCCGGTAATCCGTATTTGGC (site GTTTAGGCTGC)” the value was 2.08; for “GTTTGCGCATGGACCGGTTTTCCCGGTAATCCGTATTTGGC (site GTTTGCGCTGC)”, 2.03; for “GTTTGTTCATGGACCGGTTTTCCCGGTAATCCGTATTTGAT (site GTTTGTTCTAT)”, 0.167.

On to “GTTTTTCCATGGACCGGTTTTCCCGGTAATCCGTATTTGGT (site GTTATTCCTAC)”, for which the “recombinant UMI read abundance (log10)” value was 0.0038.

On to “GTTTTTCCATGGACCGGTTTTCCCGGTAATCCGTATTTGGT (site GTTCTTCCTAC)”, for which the “recombinant UMI read abundance (log10)” value turned out to be 0.00946. Turning to “GTTTTTCCATGGACCGGTTTTCCCGGTAATCCGTATTTGGT (site GTTGTTCCTAC)”, the “recombinant UMI read abundance (log10)” value turned out to be 0.0239. For “GTTTTTCCATGGACCGGTTTTCCCGGTAATCCGTATTTGGT (site GTTTTTCCTAC)” the value was 0; for “TAAAAGCCATGGACCGGTTTTCCCGGTAATCCGTATTTGAG (site TAAAAGCCTCT)”, 0.525; for “TAAAATCCATGGACCGGTTTTCCCGGTAATCCGTATTTGTA (site TAAAATCCTTA)”, 0. For “TAAAATCCATGGACCGGTTTTCCCGGTAATCCGTATTTGTA (site TAAACTCCTTA)” the value was 1.43; for “TAAAATCCATGGACCGGTTTTCCCGGTAATCCGTATTTGTA (site TAAAGTCCTTA)”, 0.431.

In the case of “TAAAATCCATGGACCGGTTTTCCCGGTAATCCGTATTTGTA (site TAAATTCCTTA)”, the “recombinant UMI read abundance (log10)” value was determined as 0. Then “TAAACCCCATGGACCGGTTTTCCCGGTAATCCGTATTTGTA (site TAAACCCCTTA)”, with 1.33.
